Laboratory results taken from patent US20240426776A1, “RAPID DIFFERENTIATION OF ANTIBIOTIC-SUSCEPTIBLE AND -RESISTANT BACTERIA THROUGH MEDIATED EXTRACELLULAR ELECTRON TRANSFER” (priority 2021, published 2024).
Values after ≈ are worked out from the molar mass of the structure shown. Values joined by “and” are separate entries in the source; they are usually repeats but may differ in a detail not shown here. Equal values may be shown once. Read-outs that look alike come from different tables or passages of the source. Marks after values point to notes of the source that are not given here.

Key:
[1] = system: Staphylococcus aureus (strains 29213 and 43300); test: READAS electrochemical current response with PMS mediator (ASIn); format: cell-based; conditions: for ASIn (antibiotic susceptibility index), single replicates: oxacillin 20× breakpoint (120 μg/mL), ASI20, 30° C., 15 μM PMS, 0.1 OD600
Procedure: Each measurement was replicated at least four times.
(S. aureus experiments) or 37° C. (all others) MH media.
The current responses measured follows a sigmoidal curve structure.
As a second example method of operation, the S. aureus strains selected from Table 2 were assessed. Initially, a 2×CLSI resistance breakpoint concentrations for two antibiotics oxacillin (12 μg/mL) and tobramycin (32 μg/mL) were used for the example method of operation. The ASI2<0.4 and it was concluded that the concentration of the antibiotics was insufficient to classify the strains as antibiotic-susceptible or -resistant. S. aureus was then treated with 4×, 6×, 8×, 10×, and 20× the breakpoint concentration of oxacillin and was compared to the control as depicted in FIG. 8A. […] S. aureus was also treated with 4× and 10× the breakpoint concentration of tobramycin and was compared to the control depicted in FIG. 8B. […] The efficacy of antibiotic was proportional to the concentration when a high cell density (1.1×10^8 CFU/mL) was used.
The ASIn analysis time for classifying the strains as resistant or susceptible for tobramycin treatment was 33-78 min which was 30 min less than needed for detecting oxacillin susceptibility which required 60-96 min.

[2] = system: Staphylococcus aureus (strains 29213 and 43300); test: Microdilution antibiotic susceptibility assay (MIC, CLSI guidelines); format: cell-based; conditions: for MIC: Staphylococcus aureus, MH media, oxacillin: 30° C., 18-24 h, 2% NaCl, read-out: estimated minimum inhibitory concentration from this study
Procedure: Testing for S. aureus susceptibility to oxacillin differed with incubation at 30° C. for 18-24 h in MH media supplemented with 2% NaCl.
Values listed in Table 2 below include the estimated minimum inhibitory concentration from this study (μg/mL), the determination of(S) sensitive or (R) resistant microbes according to CLSI criteria, and the CLSI guidelines (μg/mL) for the species being tested. Empty cells were not evaluated.

[3] = system: Gram-positive 1 ATCC 29213, Gram-positive 2 BAA-1026; test: READAS operator blinded test; format: cell-based; conditions: oxacillin 2× (12 μg/mL); for ASIn: OD600=0.1
Procedure: Tests were conducted for which the species or resistance phenotype was not known beyond the fact that one set was a Gram-positive and the other Gram-negative, and the antibiotics to be tested were oxacillin and imipenem, respectively. The isolates were provided as coded streak plates. Because the species were unknown, the breakpoint concentration of oxacillin and imipenem were estimated from the known breakpoints of the four previously tested strains (as shown in Table 1; 6 μg/mL for oxacillin, S. aureus and 6 μg/mL imipenem for Gram-negative strains). Following the decision methodology for determining antibiotic susceptibility and resistance of READAS, the strains were first tested with 2× the resistance breakpoint concentration (12 μg/mL oxacillin or imipenem) and the ASI2 was measured. This was increased up to 24× the resistance breakpoint concentration. If ASI2≥0.4 then the strain was considered susceptible. […] If neither strain achieved an ASI2≥0.4, 24× the resistance breakpoint concentration was tested and the ASI24 was measured.
As another example method of operation, operator blinded tests were conducted using susceptible and resistant strains of Gram-positive and -negative bacteria. Because the species identification was unknown, […] oxacillin was chosen as the estimated resistance breakpoint for the Gram-positive strain and 6 μg/mL imipenem was initially chosen as the resistance breakpoint for the Gram-negative strain. The stains selected for this example method of operation include Gram-positive 1 ATCC 29213, Gram-positive 2 BAA-1026, Gram-negative 1 AR55 and Gram-negative 2 AR58 with cultures of OD600=0.1, for simplicity.
(§1) Both Gram-positive strains were correctly classified using 2×(12 μg/mL oxacillin) in <120 min (97±45 min and 103±33 min). The Gram-negative strains were also correctly classified after increasing concentrations of imipenem from 2× to 20×(12 to 120 μg/mL imipenem). […] These phenotypic results were confirmed with results of standard procedure known to those skilled in the art and are included in Table 4 below, wherein READAS(S) susceptibility was defined by an ASIn≥0.4; (R) resistant was defined by an ASIn<0.4; analysis time shown in minutes. The standard procedure established susceptibility or resistance, MIC in μg/mL, and analysis time shown in hours.

[4] = system: Gram-positive 1 ATCC 29213, Gram-positive 2 BAA-1026; test: Standard procedure confirming blinded test (susceptibility, MIC, analysis time); format: cell-based; design: key to Standard procedure susceptibility or resistance (second symbol of cell): S: The standard procedure established susceptibility or resistance; R: The standard procedure established susceptibility or resistance
Procedure: as §1

[5] = system: Staphylococcus aureus (strains 29213 and 43300); conditions: cited from earlier work
A. baumannii strain 78 = test: Absorbance growth curves on increasing concentration of the electron transfer mediator; format: cell-based, Acinetobacter baumannii; conditions: PMS concentrations higher than 15 μM; MH media; FIG. 3B
Procedure: […] The wells were inoculated to 0.1 OD600 for a total volume of 200 μL. The plates were continuously mixed by an orbital motion and maintained at 37° C. or 30° C. for S. aureus and oxacillin. Absorbance growth curves were recorded at 600 nm for 24 h and growth curves were presented as the average of three technical replicates with standard deviation.
Error bars represent standard deviation of three replicates. With this PMS concentration of 15 μM, Gram-negative species of bacteria with OD600=0.1 (approximately 10^7 and 10^8 cells per mL; Table 2) consistently had analysis times in less than 90 min, as illustrated by FIG. 3C. The current magnitude is shown to increase with increasing cell density while the response time is seen to be decreased with increasing cell density. Error bars are the standard deviation of four replicates in FIG. 3C. Increasing the cell density also contributed to the “inoculum effect” of antibiotic efficacy resulting in the need for higher concentrations of antibiotics to differentiate sensitive and resistant strains.

Row | Structure (SMILES) | current response with increasing antibiotic concentration ([1]; oxacillin 4×, 6×, 8×, 10×, 20× breakpoint (FIG. 8A), tobramycin 4× and 10× (FIG. 8B), […]10^8 CFU/mL) | ASIn (antibiotic susceptibility index), single replicates ([1]; strain 29213 (susceptible)) | average ASI20 (±SE) ([1]; strain 43300 (resistant), oxacillin 20× (120 μg/mL)) | ASIn (antibiotic susceptibility index), single replicates ([1]; strain 43300 (resistant)) | MIC ([2]; strain 29213) [µg/mL] | MIC ([2]; strain 43300) [µg/mL] | sensitive or resistant according to CLSI criteria ([2]; strain 29213) | sensitive or resistant according to CLSI criteria ([2]; strain 43300) | READAS susceptibility (first symbol of cell) ([3]; Gram-positive 1 (ATCC 29213)) | ASIn ([3]; Gram-positive 1 (ATCC 29213)) | READAS susceptibility (first symbol of cell) ([3]; Gram-positive 2 (BAA-1026)) | ASIn ([3]; Gram-positive 2 (BAA-1026)) | MIC ([4]; Gram-positive 1 (ATCC 29213)) [µg/mL] | Standard procedure susceptibility or resistance (second symbol of cell) ([4]; Gram-positive 1 (ATCC 29213)) | MIC ([4]; Gram-positive 2 (BAA-1026)) [µg/mL] | Standard procedure susceptibility or resistance (second symbol of cell) ([4]; Gram-positive 2 (BAA-1026)) | CLSI guidelines (resistance breakpoint) for the species [5] [µg/mL] | inhibition of bacterial growth by the electron transfer mediator (A. baumannii strain 78)
1 | Cc1onc(-c2ccccc2)c1C(=O)N[C@@H]1C(=O)N2[C@@H]1SC(C)(C)[C@@H]2C(=O)O [Oxacillin, oxacillin] | decreased with increasing oxacillin concentration except at low doses where no effect or an increase in the current is observed | 0.4 and 0.63 and 0.59 | 0.17±0.13 | 0.4 and 0.63 and 0.59 | 0.5 (≈ 1.25 µM) | 32 (≈ 79.7 µM) | S | R | S/S (READAS(S) susceptibility was defined by an ASIn≥0.4) | 0.55 ± 0.14^b | R/R ((R) resistant was defined by an ASIn<0.4) | −0.04 ± 0.19^b | 0.5 (≈ 1.25 µM) | S/S | ≥ 4 | R/R | 6 | 
2 | COS(=O)(=O)[O-].C[n+]1c2ccccc2nc2ccccc21 [PMS, phenazine methosulfate] |  |  |  |  |  |  |  |  |  |  |  |  |  |  |  |  |  | higher concentrations produced variable degrees of inhibition between strains
